These results are taken from PubChem BioAssay (NCI).

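In this assay, cells in 96-well plates receive the compound at five concentrations for 48 hours. Endpoints are linearly interpolated between the surrounding concentrations. GI50 marks 50% less growth. The concentration for full growth arrest is given as TGI.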

Some test systems named below: UACC-257 melanoma; HCT-15 colon; COLO 205 colon; SF-539 CNS; RPMI-8226 leukemia; KM12 colon; SF-268 CNS; K-562 leukemia; NCI-H23 lung; SW-620 colon.
What all share (assay): growth of human tumour cells (NCI), 48 h

On to `O=S(=O)(NCCNc1cc(-c2cn(-c3ccccc3)nc2-c2cccc(O)c2)ccn1)c1ccc(C(F)(F)F)cc1`, for which the GI50 in the experiment with UACC-257 melanoma is 4.79 µM; with HCT-15 colon, 2340 nM; in the experiment with COLO 205 colon, 1810 nM; in the experiment on SF-539 CNS it was 1590 nM; in the experiment on RPMI-8226 leukemia, 2770 nM; with KM12 colon, 2.62 µM. For the same compound, the GI50 in the experiment on SF-268 CNS was 3.42 µM; in the experiment with K-562 leukemia it was 2480 nM; in the experiment with NCI-H23 lung it was 2970 nM; in the experiment on SW-620 colon, 3550 nM. The TGI with UACC-257 melanoma was found to be 18.4 µM; in the experiment with HCT-15 colon, 11 µM; with COLO 205 colon, 4 µM; in the experiment on SF-539 CNS it was 3.48 µM; with RPMI-8226 leukemia, 7.85 µM; in the experiment with KM12 colon, 7.98 µM. Further, the TGI in the experiment with SF-268 CNS stood at 17.3 µM; in the experiment on K-562 leukemia, 6.58 µM; in the experiment with NCI-H23 lung it was 15.4 µM; with SW-620 colon, 12.9 µM.
For `CCCCCCCCCCCCCCCCC1=CC(=O)C=C(OC)C1=O`, the TGI with UACC-257 melanoma, with HCT-15 colon, with COLO 205 colon, with SF-539 CNS, in the experiment on RPMI-8226 leukemia and in the experiment with KM12 colon was greater than 100 µM each time. Moreover, the TGI in the experiment on SF-268 CNS, in the experiment with K-562 leukemia, in the experiment on NCI-H23 lung and with SW-620 colon was greater than 100 µM in each case.
`CC[O-].CC[O-].[O-]c1ccccc1C=Nc1ccccc1.[O-]c1ccccc1C=Nc1ccccc1.[Ti+4]`: the GI50 is greater than 100 µM in the experiment on UACC-257 melanoma; 96800 nM in the experiment with COLO 205 colon; greater than 100000 nM in the experiment with SF-539 CNS; greater than 100000 nM in the experiment with RPMI-8226 leukemia; 26.7 µM in the experiment with KM12 colon; greater than 100 µM in the experiment on SF-268 CNS. Moreover, the GI50 with K-562 leukemia is 789 nM; with NCI-H23 lung, greater than 100000 nM; in the experiment on SW-620 colon it was 9240 nM. Moreover, the TGI in the experiment on UACC-257 melanoma, in the experiment on COLO 205 colon, with SF-539 CNS, with RPMI-8226 leukemia, in the experiment on KM12 colon and in the experiment with SF-268 CNS was greater than 100 µM throughout. For the same compound, the TGI with K-562 leukemia, in the experiment on NCI-H23 lung and in the experiment on SW-620 colon was greater than 100 µM in each case.
In the case of `C[C@]12CCC[C@H](OC=O)C1(O)C[C@H](C(=O)O)CC2` (some centres undefined), the TGI in the experiment on UACC-257 melanoma, in the experiment on HCT-15 colon, in the experiment with COLO 205 colon, with SF-539 CNS, with RPMI-8226 leukemia and in the experiment with KM12 colon was greater than 100 µM in each case. Moreover, the TGI with SF-268 CNS, in the experiment with K-562 leukemia, in the experiment on NCI-H23 lung and in the experiment with SW-620 colon was greater than 100 µM throughout.
For `COc1cc2[nH]c(C(=O)c3cc(OC)c(OC)c(OC)c3)c(N)c2cc1C#CCO`, the GI50 was 432 nM in the experiment with HCT-15 colon; 268 nM in the experiment with COLO 205 colon; 138 nM in the experiment on SF-539 CNS; 1640 nM with RPMI-8226 leukemia; 0.334 µM in the experiment with KM12 colon; 0.957 µM with SF-268 CNS. For the same compound, the GI50 in the experiment on K-562 leukemia was 347 nM; with NCI-H23 lung, 508 nM; in the experiment with SW-620 colon, 294 nM. In addition, the TGI is greater than 100 µM in the experiment on HCT-15 colon; 0.842 µM in the experiment on COLO 205 colon; 0.491 µM in the experiment with SF-539 CNS; 83.6 µM in the experiment on RPMI-8226 leukemia; greater than 100 µM in the experiment on KM12 colon; 73.4 µM in the experiment with SF-268 CNS. Besides, the TGI in the experiment on K-562 leukemia, in the experiment on NCI-H23 lung and with SW-620 colon was greater than 100 µM each time.
Regarding `CCC[CH2][Sn]1([CH2]CCC)[O]C(c2ccccn2)S(=O)(=O)[O]1` (centres undefined), the GI50 with UACC-257 melanoma was 1.79 µM; with HCT-15 colon, 1790 nM; with COLO 205 colon, 2100 nM; with SF-539 CNS, 1740 nM; in the experiment on RPMI-8226 leukemia, 2230 nM; in the experiment on KM12 colon, 12.7 µM. Further, the GI50 was 2140 nM with K-562 leukemia, 1720 nM in the experiment on NCI-H23 lung and 1560 nM with SW-620 colon. For the same compound, the TGI amounted to 3.29 µM in the experiment with UACC-257 melanoma; 3.5 µM in the experiment on HCT-15 colon; 4.54 µM with COLO 205 colon; 3.93 µM in the experiment with SF-539 CNS; 6.46 µM in the experiment with RPMI-8226 leukemia; 26 µM in the experiment on KM12 colon. Besides, the TGI was found to be 6.72 µM with K-562 leukemia, 3.5 µM in the experiment on NCI-H23 lung and 3.02 µM in the experiment on SW-620 colon.
In the case of `COc1ccc2[nH]c3c4c(c5cc(C(C)(C)C)ccc5c3c2c1)C(=O)N(c1ccccc1)C4=O`, the TGI is greater than 100 µM with UACC-257 melanoma; greater than 100 µM in the experiment on COLO 205 colon; 49 µM with SF-539 CNS; greater than 100 µM in the experiment on RPMI-8226 leukemia; greater than 100 µM in the experiment with KM12 colon; greater than 100 µM with SF-268 CNS. Also, the TGI in the experiment with K-562 leukemia, in the experiment on NCI-H23 lung and in the experiment on SW-620 colon was greater than 100 µM throughout.
For the compound `O=c1[nH]cnc2c(C3OC(CO)C(O)C3O)[nH]nc12` (centres undefined), the TGI in the experiment with UACC-257 melanoma, with HCT-15 colon, in the experiment on COLO 205 colon, in the experiment on SF-539 CNS, with RPMI-8226 leukemia and in the experiment on KM12 colon was greater than 100 µM in each case. In addition, the TGI in the experiment on K-562 leukemia, in the experiment with NCI-H23 lung and in the experiment on SW-620 colon was greater than 100 µM throughout.
As for `CC(=O)CC(=O)N(CCN(C(=O)CC(C)=O)c1ccccc1)c1ccccc1`, the TGI with UACC-257 melanoma, in the experiment on COLO 205 colon, in the experiment with SF-539 CNS, in the experiment on RPMI-8226 leukemia, in the experiment on KM12 colon and with SF-268 CNS was greater than 100 µM throughout. In addition, the TGI with K-562 leukemia, with NCI-H23 lung and in the experiment with SW-620 colon was greater than 100 µM each time.
Take `CCCC(OCC)(OCC)OCC`: the TGI in the experiment on UACC-257 melanoma, in the experiment with HCT-15 colon, in the experiment on COLO 205 colon, in the experiment on SF-539 CNS, in the experiment with RPMI-8226 leukemia and in the experiment on KM12 colon was greater than 100 µM in each case. The TGI in the experiment on SF-268 CNS, in the experiment on K-562 leukemia and in the experiment with NCI-H23 lung was greater than 100 µM each time.
For the compound `CCCCCCCCCOC(=S)NC`, the TGI in the experiment on HCT-15 colon was found to be 36.1 µM; in the experiment on COLO 205 colon, 49.2 µM; in the experiment with SF-539 CNS it was 32.5 µM; with RPMI-8226 leukemia, 48.4 µM; in the experiment on KM12 colon, 57 µM; in the experiment with SF-268 CNS, 38.5 µM. Also, the TGI was found to be 51.1 µM with K-562 leukemia, 34.6 µM in the experiment with NCI-H23 lung and 40.9 µM with SW-620 colon.
